Drawing on PubChem BioAssay AID540274 (Sanford-Burnham Center for Chemical Genomics, 2011), this text covers IC50 for five molecules.

The source made the active and inactive calls.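 Rule for the calls: active = mean IC50 below 100 µM; inactive = the rest.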

The test concerns the target intestinal alkaline phosphatase Alpi (Mus musculus). The test can be described thus: inhibitors of murine Alpi enzyme – biochemical, ortholog specificity, luminescence, set 2, selectivity assay for human IAP inhibitor project, SAR follow-up (AID 540274). The conditions noted are these: purified mouse IAP, CDP-Star luminescence, 30 min.
A word on the IC50: it is the concentration that inhibits the measured activity by half. For `O=C(CNS(=O)(=O)c1ccc2[nH]c(=O)oc2c1)Nc1ccc2c(c1)OCO2`, the IC50 is 5.05 µM.

As for `N#Cc1ccc(CNC(=O)CCNS(=O)(=O)c2ccc3[nH]c(=O)oc3c2)cc1`, the IC50 was > 100 µM (inactive).

As to `O=C(CNS(=O)(=O)c1ccc2[nH]c(=O)oc2c1)NCc1ccc2c(c1)OCO2`, the IC50 was 3.31 µM.

`Cc1ccc(C)c(NC(=O)CCNS(=O)(=O)c2ccc3[nH]c(=O)oc3c2)c1`: the IC50 is 0.219 µM.

Regarding `COc1ccc(NC(=O)CNS(=O)(=O)c2ccc3[nH]c(=O)oc3c2)cc1OC`, the IC50 is 23 µM.
